Assay results: ChEMBL document CHEMBL1130885, “A potent and selective inhibition of parainfluenza 1 (Sendai) virus by new 6-oxiranyl-, 6-methyloxiranyluracils, and 4(3H)-pyrimidinone derivatives” (1998)

Key:
MDCK [1] = experiment: Antiviral activity against parainfluenza 1 (sendai) virus was determined in madin Darby canine kidney (MDCK)i cells; assay type: functional, Canis lupus familiaris; conditions: read-out: ED50 (the source's name)
MDCK [2] = experiment: Minimum toxic concentration required to cause microscopically detectable alteration of confluent madin Darby canine kidney (MDCK)cell morphology; assay type: functional, Canis lupus familiaris
Mus musculus = organism: Mus musculus; experiment: Inhibitory concentration required to inhibit proliferation in mouse myeloma cells; assay type: functional

Row | Compound | EC50 (MDCK [1]; Canis lupus familiaris, MDCK) | MTC (MDCK [2]) | CC50 (Mus musculus; Mus musculus) | EC50 (MDCK [1]) | CC50 (Mus musculus)
1 | C[C@H]1O[C@@]1(C)Cc1cc(=O)n(C)c(=O)n1C | > 2 µM | >2 µM | 89 µM |  | 
2 | C[C@@H]1O[C@@]1(C)Cc1cc(=O)n(C)c(=O)n1C | > 2 µM | >2 µM | 89 µM |  | 
3 | Cn1c(CC2(C)CO2)cc(=O)n(C)c1=O (configuration not stated) | 0.24 µM | 0.48 µM | 4 µM |  | 
4 | Cn1c(CC2(C(C)(C)C)CO2)cc(=O)n(C)c1=O (configuration not stated) | 0.59 µM | >0.79 µM | 7.9 µM |  | 
5 | Cn1c(CC2(c3ccccc3)CO2)cc(=O)n(C)c1=O (configuration not stated) | 0.18 µM | 0.37 µM | 3.7 µM |  | 
6 | CCCOc1nc(CC23CCCCC2O3)cc(=O)n1C (configuration not stated) | 176 µM | >352 µM | > 352 µM |  | 
7 | Cn1c(C2OC2(C)c2ccccc2)cc(=O)n(C)c1=O (configuration not stated) | 0.47 µM | >0.81 µM | 7.3 µM |  | 
8 | CCCOc1nc(CC2(c3ccccc3)CO2)cc(=O)n1C (configuration not stated) | 16.6 µM | 330 µM | > 30 µM |  | 
9 | Cn1c(CC23CCCC2O3)cc(=O)n(C)c1=O (configuration not stated) | 0.42 µM | >0.84 µM | 8.4 µM |  | 
10 | Cn1c(OC2CCCCC2)nc(CC2(c3ccccc3)CO2)cc1=O (configuration not stated) | 147 µM | 294 µM | > 294 µM |  | 
11 | Cn1c(CC23CCCCC2O3)cc(=O)n(C)c1=O (configuration not stated) | > 2 µM | >2 µM | 40 µM |  | 
12 | CC1OC1(C)Cc1cc(=O)n(C)c(OC2CCCCC2)n1 (configuration not stated) | 171 µM | 342 µM | > 342 µM |  | 
13 | Cn1c(C2OC2c2ccccc2)cc(=O)n(C)c1=O (stereo in doubt; 6b) |  | >0.8 µM |  | 0.38 µM | 7.7 µM
14 | Cn1c(C2OC2c2ccccc2)cc(=O)n(C)c1=O (stereo in doubt; 6c) |  | 380 µM |  | 193 µM | > 380 µM
